Reference: PubChem BioAssay (NCI)
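Dose response: 5 concentrations. Exposure: 48 h. Format: 96-well plates. Endpoint: linear interpolation; highest concentration if not reached. TGI: total growth inhibition.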

Key:
Assay in all cases: NCI-60 cell line screen, 48 h
DU-145 prostate = system: DU-145 prostate
PC-3 prostate = system: PC-3 prostate
SR leukemia = system: SR leukemia
M14 melanoma = system: M14 melanoma
786-0 renal = system: 786-0 renal
ACHN renal = system: ACHN renal
NCI/ADR-RES ovarian = system: NCI/ADR-RES ovarian
NCI-H226 lung = system: NCI-H226 lung
SF-295 CNS = system: SF-295 CNS
SK-MEL-5 melanoma = system: SK-MEL-5 melanoma
HCT-116 colon = system: HCT-116 colon
NCI-H23 lung = system: NCI-H23 lung
TK-10 renal = system: TK-10 renal
U251 CNS = system: U251 CNS
LOX IMVI melanoma = system: LOX IMVI melanoma
K-562 leukemia = system: K-562 leukemia
OVCAR-8 ovarian = system: OVCAR-8 ovarian
CCRF-CEM leukemia = system: CCRF-CEM leukemia
CAKI-1 renal = system: CAKI-1 renal
KM12 colon = system: KM12 colon
RXF 393 renal = system: RXF 393 renal
A498 renal = system: A498 renal
SNB-19 CNS = system: SNB-19 CNS
HOP-62 NSCLC = system: HOP-62 NSCLC
MDA-N = system: MDA-N
SNB-75 CNS = system: SNB-75 CNS
IGROV1 ovarian = system: IGROV1 ovarian
A549 NSCLC = system: A549 NSCLC
EKVX NSCLC = system: EKVX NSCLC
SW-620 colon = system: SW-620 colon
SN12C renal = system: SN12C renal
SK-OV-3 ovarian = system: SK-OV-3 ovarian
NCI-H460 lung = system: NCI-H460 lung
UO-31 renal = system: UO-31 renal
T-47D breast = system: T-47D breast
SF-268 CNS = system: SF-268 CNS
MALME-3M melanoma = system: MALME-3M melanoma
RPMI-8226 leukemia = system: RPMI-8226 leukemia
BT-549 breast = system: BT-549 breast
NCI-H522 lung = system: NCI-H522 lung
OVCAR-5 ovarian = system: OVCAR-5 ovarian
MCF7 breast = system: MCF7 breast
MOLT-4 leukemia = system: MOLT-4 leukemia
MDA-MB-231 breast = system: MDA-MB-231 breast
OVCAR-4 ovarian = system: OVCAR-4 ovarian
SK-MEL-28 melanoma = system: SK-MEL-28 melanoma
HCC-2998 colon = system: HCC-2998 colon
HCT-15 colon = system: HCT-15 colon
UACC-257 melanoma = system: UACC-257 melanoma
SK-MEL-2 melanoma = system: SK-MEL-2 melanoma
MDA-MB-435 = system: MDA-MB-435
SF-539 CNS = system: SF-539 CNS
COLO 205 colon = system: COLO 205 colon
HT29 colon = system: HT29 colon
UACC-62 melanoma = system: UACC-62 melanoma

Compound: N#Cc1c(-c2ccc(Cl)cc2)cc(-c2ccc(Nc3ccnc4cc(C(F)(F)F)ccc34)cc2)nc1N
- TGI (DU-145 prostate): > 100 µM
- TGI (PC-3 prostate): > 100 µM
- TGI (SR leukemia): 16.4 µM
- TGI (M14 melanoma): 49.6 µM
- TGI (786-0 renal): 38.4 µM
- TGI (ACHN renal): 36.8 µM
- TGI (NCI/ADR-RES ovarian): > 100 µM
- TGI (NCI-H226 lung): 51.1 µM
- TGI (SF-295 CNS): 38.8 µM
- TGI (SK-MEL-5 melanoma): > 100 µM
- TGI (HCT-116 colon): 22.4 µM
- TGI (NCI-H23 lung): > 100 µM
- TGI (TK-10 renal): 81.4 µM
- TGI (U251 CNS): 38 µM
- TGI (LOX IMVI melanoma): > 100 µM
- TGI (K-562 leukemia): 46.9 µM
- TGI (OVCAR-8 ovarian): > 100 µM
- TGI (CCRF-CEM leukemia): 56.5 µM
- TGI (CAKI-1 renal): > 100 µM
- TGI (KM12 colon): > 100 µM
- TGI (RXF 393 renal): 64.5 µM
- TGI (A498 renal): 33.8 µM
- TGI (SNB-19 CNS): 30.6 µM
- TGI (HOP-62 NSCLC): 42.9 µM
- TGI (MDA-N): > 100 µM
- TGI (SNB-75 CNS): 46.2 µM
- TGI (IGROV1 ovarian): > 100 µM
- TGI (A549 NSCLC): > 100 µM
- TGI (EKVX NSCLC): > 100 µM
- TGI (SW-620 colon): > 100 µM
- TGI (SN12C renal): 59 µM
- TGI (SK-OV-3 ovarian): > 100 µM
- TGI (NCI-H460 lung): > 100 µM
- TGI (UO-31 renal): 34.3 µM
- TGI (T-47D breast): 43.2 µM
- TGI (SF-268 CNS): > 100 µM
- TGI (MALME-3M melanoma): > 100 µM
- TGI (RPMI-8226 leukemia): > 100 µM
- TGI (BT-549 breast): > 100 µM
- TGI (NCI-H522 lung): 75.9 µM
- TGI (OVCAR-5 ovarian): 88.2 µM
- TGI (MCF7 breast): > 100 µM
- TGI (MOLT-4 leukemia): 37.5 µM
- TGI (MDA-MB-231 breast): 71.2 µM
- TGI (OVCAR-4 ovarian): 42 µM
- TGI (SK-MEL-28 melanoma): 48.2 µM
- TGI (HCC-2998 colon): > 100 µM
- TGI (HCT-15 colon): 38.4 µM
- TGI (UACC-257 melanoma): > 100 µM
- TGI (SK-MEL-2 melanoma): 62.4 µM
- TGI (MDA-MB-435): 42.7 µM
- TGI (SF-539 CNS): 33.2 µM
- TGI (COLO 205 colon): > 100 µM
- TGI (HT29 colon): 31.5 µM
- TGI (UACC-62 melanoma): 37.8 µM
